pIC50: −log10 of the molar value. Where two headings read alike, the source gives them in different places.
Columns and labels:
MCF-7 cells = experiment: CellTiter-Glo (CTG) cell proliferation assay in MCF-7 cells; format: cell-based; details: Homo sapiens, MCF7, 144 h, MCF-7 cell proliferation, Day 6
From the text: CellTiter-Glo® (CTG) Assays in MCF-7 and T47D Cell Lines.
In vitro Assay: MCF-7 and T47D CTG assay

ER in T47D cells = ER in T47D cells (Homo sapiens (Human), UniProt P03372); experiment: In-cell Western (ICW) ER degradation assay in T47D cells; format: cell-based; details: 16 hrs treatment; for DC50: ER degradation; for Dmax: maximal ER degradation, read-out: T47D Dmax
CRBN/DDB1 = CRBN/DDB1 (Homo sapiens (Human), UniProt Q96SW2); format: binding; details: His tagged CRBN+DDB1, Cy5-labeled Thalidomide probe, one hour; read-out: CRBN HTRF IC50
Description: The binding potency was determined using HTRF assay technology (Perkin Elmer). Compounds were serially diluted in DMSO and […] volume was transferred to white 384-well plate.

ER in MCF-7 cells = ER in MCF-7 cells (Homo sapiens (Human), UniProt P03372); experiment: In-cell Western (ICW) ER degradation assay in MCF-7 cells; format: cell-based; details: for DC50: MCF-7, ER degradation, read-out: MCF7 DC50
ERα_LBD (GST) = ERα_LBD (GST) (Homo sapiens (Human), UniProt P03372); experiment: IC50 measurements for binding to ERα_LBD (GST), LanthaScreen TR-FRET competitive binding; details: ERα_LBD (GST) 4 nM, Fluormone ES2 Green tracer, 60 min; read-out: ERα HTRF IC50
Description: In vitro Assay: IC50 Measurements for binding to ERα_LBD (GST) • Final assay conditions: • 1. ERα_LBD (GST) protein: 4 nM • 2. Tb Anti-GST: 2 nM • 3. Fluormone ES2 Green tracer: 3 nM • 4. Incubation time: 60 min • 5. DMSO: 1% • 6. Assay buffer: Adding 1M DTT to Nuclear receptor Buffer K for final 5 mM DTT. • 7. ZPE: 1% DMSO • 8. HPE: 1 μM ARV_471 (positive control) • 9. LanthaScreen® TR-FRET ERα Competitive Binding Assay (ThermoFisher, #A^15887) • 100× Compound preparation
1) Cherry pick 2 μL 10 mM compound stock to column 1 of a 384 intermediate plate. • 2) Add 18 μL DMSO to column 1 to dilute compound to 1 mM. • 3) Transfer 10 μL 1 mM compound to column 1 of a LDV plate. • 2) Add 6 μl DMSO to column 2-10 of the LDV plate. • 3) Compounds undergo 3-fold serial dilution (3 μL+6 μL) in DMSO. • 4) Transfer 120 nL compound solution to assay plate. ZPE: 120 nL 100% DMSO • Procedure:
Complete nuclear receptor buffer K was prepared by adding 1 M DTT to nuclear receptor buffer K for a final concentration of 5 mM DTT. Complete nuclear receptor buffer K must be prepared fresh daily, 2X protein solution was prepared using complete nuclear receptor buffer K containing 8 nM ERα_LBD (GST) and 4 nM Tb Anti-GST. Then, 2X Fluormone ES2 Green tracer (6 nM) was prepared using complete nuclear receptor buffer K. Add 6 μL 2X Fluormone ES2 green tracer into a compound plate (PerkinElmer 6008289) by dragonfly with one-tips-addition. Subsequently, 6 μL 2× protein solution was added into the plate. The 384-well plate was mixed on a plate shaker and incubated at room temperature protected from light for 60 min. The plate was scaled with a cover to minimize evaporation. The plate was read at wavelengths of 520 nm and 495 nm. The TR-FRET ratio was calculated by dividing the emission signal at 520 nm by the emission signal at 495 nm. A binding curve was generated by plotting the emission ratio vs, the log [ligand]. To determine the IC50 value, fit the data using XL-fit for a sigmoidal dose-response.

[1] = MCF7, MCF-7, maximal ER degradation, 16 hrs treatment, read-out: MCF7 Dmax
[2] = MCF7, read-out: MCF7 Dmax, MCF-7, maximal ER degradation, 16 hrs treatment

Chain of ERα_LBD (GST) (P03372 311-547): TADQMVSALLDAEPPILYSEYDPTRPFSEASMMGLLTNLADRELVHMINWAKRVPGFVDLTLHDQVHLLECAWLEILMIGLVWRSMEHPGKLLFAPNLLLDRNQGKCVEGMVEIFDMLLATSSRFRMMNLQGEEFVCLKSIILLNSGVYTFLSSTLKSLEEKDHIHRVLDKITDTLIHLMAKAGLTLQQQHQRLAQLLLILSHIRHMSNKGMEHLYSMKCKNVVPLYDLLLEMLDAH
Chain of ER in MCF-7 cells (P03372 whole entry): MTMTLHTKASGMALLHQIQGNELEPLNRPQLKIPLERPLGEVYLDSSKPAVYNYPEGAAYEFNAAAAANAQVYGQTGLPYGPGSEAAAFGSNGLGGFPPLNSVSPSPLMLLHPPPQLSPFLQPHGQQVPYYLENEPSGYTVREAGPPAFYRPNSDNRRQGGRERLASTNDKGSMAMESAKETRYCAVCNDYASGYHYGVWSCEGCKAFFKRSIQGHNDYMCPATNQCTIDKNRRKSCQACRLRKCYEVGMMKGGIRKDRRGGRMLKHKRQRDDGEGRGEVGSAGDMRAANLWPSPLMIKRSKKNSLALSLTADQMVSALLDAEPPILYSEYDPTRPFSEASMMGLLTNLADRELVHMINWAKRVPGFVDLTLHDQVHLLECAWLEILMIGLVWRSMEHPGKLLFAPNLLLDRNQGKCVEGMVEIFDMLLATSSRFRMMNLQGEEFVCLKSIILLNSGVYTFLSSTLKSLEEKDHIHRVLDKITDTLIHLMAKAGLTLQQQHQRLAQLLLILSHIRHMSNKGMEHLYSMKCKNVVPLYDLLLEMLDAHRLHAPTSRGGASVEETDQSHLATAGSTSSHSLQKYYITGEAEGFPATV
Chain of ER in T47D cells (P03372 whole entry): as above
Chain of CRBN/DDB1 (Q96SW2 whole entry, species assumed): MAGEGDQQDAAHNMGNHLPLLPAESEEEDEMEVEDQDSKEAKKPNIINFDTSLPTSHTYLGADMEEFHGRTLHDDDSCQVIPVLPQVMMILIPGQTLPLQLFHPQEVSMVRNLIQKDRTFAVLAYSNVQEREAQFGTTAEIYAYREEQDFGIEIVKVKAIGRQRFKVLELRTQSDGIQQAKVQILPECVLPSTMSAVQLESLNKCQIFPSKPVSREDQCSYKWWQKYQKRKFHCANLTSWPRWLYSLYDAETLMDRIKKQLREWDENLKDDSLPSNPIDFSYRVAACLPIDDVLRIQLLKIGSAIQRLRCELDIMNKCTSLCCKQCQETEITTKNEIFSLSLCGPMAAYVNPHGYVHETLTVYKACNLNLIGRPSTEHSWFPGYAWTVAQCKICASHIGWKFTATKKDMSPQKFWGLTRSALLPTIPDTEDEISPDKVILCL
Chain of CRBN/DDB1 (Q16531 whole entry partner, species assumed): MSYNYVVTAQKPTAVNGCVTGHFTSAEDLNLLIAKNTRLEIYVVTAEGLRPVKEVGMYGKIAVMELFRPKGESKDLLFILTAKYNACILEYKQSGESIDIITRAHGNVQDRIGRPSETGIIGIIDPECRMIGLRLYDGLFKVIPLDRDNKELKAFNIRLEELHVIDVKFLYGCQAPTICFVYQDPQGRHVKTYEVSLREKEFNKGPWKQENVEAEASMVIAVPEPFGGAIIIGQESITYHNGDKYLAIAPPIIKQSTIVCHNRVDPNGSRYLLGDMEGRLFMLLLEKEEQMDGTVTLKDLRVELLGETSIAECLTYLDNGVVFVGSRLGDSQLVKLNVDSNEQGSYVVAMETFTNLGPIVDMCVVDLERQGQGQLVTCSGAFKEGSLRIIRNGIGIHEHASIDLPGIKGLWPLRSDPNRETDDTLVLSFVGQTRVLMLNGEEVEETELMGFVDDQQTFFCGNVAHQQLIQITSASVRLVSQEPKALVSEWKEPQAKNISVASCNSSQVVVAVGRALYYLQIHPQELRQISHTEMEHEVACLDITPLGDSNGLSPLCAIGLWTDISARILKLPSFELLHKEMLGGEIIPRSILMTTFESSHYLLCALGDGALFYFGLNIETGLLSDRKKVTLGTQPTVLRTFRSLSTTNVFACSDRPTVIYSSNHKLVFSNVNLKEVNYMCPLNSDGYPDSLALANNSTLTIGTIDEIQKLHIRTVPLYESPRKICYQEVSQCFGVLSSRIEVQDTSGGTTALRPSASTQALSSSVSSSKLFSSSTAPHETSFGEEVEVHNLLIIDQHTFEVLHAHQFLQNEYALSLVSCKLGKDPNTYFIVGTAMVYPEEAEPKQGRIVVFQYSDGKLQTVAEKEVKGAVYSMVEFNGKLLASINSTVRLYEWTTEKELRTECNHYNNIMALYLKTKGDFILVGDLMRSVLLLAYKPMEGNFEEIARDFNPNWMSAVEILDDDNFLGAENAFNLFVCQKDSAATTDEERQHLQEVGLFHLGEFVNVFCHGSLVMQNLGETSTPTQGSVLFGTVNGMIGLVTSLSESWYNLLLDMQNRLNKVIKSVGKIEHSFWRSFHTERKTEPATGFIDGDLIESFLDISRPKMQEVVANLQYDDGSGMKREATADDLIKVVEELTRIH

Compound	pIC50 (MCF-7 cells)	DC50 (ER in T47D cells)	Dmax (ER in T47D cells)	pIC50 (CRBN/DDB1)	Dmax (ER in MCF-7 cells; [1])	DC50 (ER in MCF-7 cells; 16 hrs treatment)	pIC50 (ERα_LBD (GST))	Dmax (ER in MCF-7 cells; [2])	MCF7 Dmax (ER in MCF-7 cells; MCF-7, maximal ER degradation, 16 hrs treatment)
COc1cc(N2CCC3(CC2)CC(CN2CCN4c5cc6c(cc5OC[C@@H]4C2)C(=O)N([C@H]2CCC(=O)NC2=O)C6)C3)ccc1[C@@H]1c2ccc(O)cc2CC[C@@H]1c1ccccc1 (single isomer, unassigned) [Compound A12]	7.00 to 8.00	< 1 nM	> 75%	6.30 to 7.30	> 75%	< 1 nM	–	–	–
COc1cc(N2CCC3(CC2)CC(CN2CCC(c4ccc(N[C@H]5CCC(=O)NC5=O)cc4)CC2)C3)c(F)cc1[C@@H]1c2ccc(O)cc2CC[C@@H]1c1ccccc1 (single isomer, unassigned) [Compound A30]	–	< 1 nM	> 75%	–	50 to 75%	< 1 nM	> 8.00	–	–
O=C1CC[C@@H](Nc2ccc(C3CCN(CC4CCC5(CC4)CN(c4ccc([C@@H]6c7ccc(O)cc7CC[C@@H]6c6ccccc6)cc4)C5)CC3)cc2)C(=O)N1 (single isomer, unassigned) [Compound A65]	7.00 to 8.00	< 1 nM	> 75%	6.30 to 7.30	50 to 75%	1 to 10 nM	–	–	–
COc1cc(N2CCC3(CC2)C[C@H](CN2CCN4c5ccc6c(c5OC[C@H]4C2)CN([C@H]2CCC(=O)NC2=O)C6=O)CO3)ccc1[C@@H]1c2ccc(O)cc2CC[C@@H]1c1ccccc1 (single isomer, unassigned) [Compound A133]	–	–	–	–	> 75%	< 1 nM	> 8.00	–	–
COc1cc(N2CCC3(CC2)C[C@@H](CN2CCN4c5ccc6c(c5OC[C@H]4C2)CN([C@H]2CCC(=O)NC2=O)C6=O)CO3)ccc1[C@@H]1c2ccc(O)cc2CC[C@@H]1c1ccccc1 (single isomer, unassigned) [Compound A134]	–	–	–	–	> 75%	< 1 nM	> 8.00	–	–
COc1cc(N2CCC3(CC2)CC(CN2CCN4c5cc6c(cc5OC[C@@H]4C2)C(=O)N([C@H]2CCC(=O)NC2=O)C6)C3)c(F)cc1[C@@H]1c2ccc(O)cc2CC[C@@H]1c1ccccc1 [Compound A101, (S)-3-((S)-3-((7-(2-fluoro-4-((1S,2S)-6-hydroxy-2-phenyl-1,2,3,4-tetrahydronaphthalen-1-yl)-5-methoxyphenyl)-7-azaspiro[3.5]nonan-2-yl)methyl)-8-oxo-1,2,3,4,4a,5,8,10-octahydro-9H-pyrazino[1′,2′: 4,5][1,4]oxazino[2,3-f]isoindol-9-yl)piperidine-2,6-dione]	–	–	–	–	> 75%	< 1 nM	> 8.00	–	–
COc1cc(N2CCC3(CC[C@H](CN4CCC5(CC4)COc4c5cc(C)c5c4CN([C@H]4CCC(=O)NC4=O)C5=O)CO3)CC2)c(F)cc1[C@@H]1c2ccc(O)cc2CC[C@@H]1c1ccccc1 [Compound A230, (S)-3-(1′-(((R)-9-(2-fluoro-4-((1S,2S)-6-hydroxy-2-phenyl-1,2,3,4-tetrahydronaphthalen-1-yl)-5-methoxyphenyl)-1-oxa-9-azaspiro[5.5]undecan-3-yl)methyl)-5-methyl-6-oxo-6,8-dihydro-2H,7H-spiro[furo[2,3-e]isoindole-3,4′-piperidin]-7-yl)piperidine-2,6-dione]	> 8.00	–	–	–	–	< 1 nM	–	> 75%	–
O=C1CC[C@H](N2Cc3c4c(cc(Cl)c3C2=O)C2(CCN(C[C@H]3CCC5(CCN(c6ccc([C@@H]7c8ccc(O)cc8CC[C@@H]7c7ccccc7)cc6)CC5)OC3)CC2)CO4)C(=O)N1 [Compound A231, (S)-3-(5-chloro-1′-(((R)-9-(4-((1R,2S)-6-hydroxy-2-phenyl-1,2,3,4-tetrahydronaphthalen-1-yl)phenyl)-1-oxa-9-azaspiro[5.5]undecan-3-yl)methyl)-6-oxo-6,8-dihydro-2H,7H-spiro[furo[2,3-e]isoindole-3,4′-pipcridin]-7-yl)piperidine-2,6-dione]	> 8.00	–	–	–	–	< 1 nM	–	> 75%	–
COc1cc(N2CCC3(CC[C@H](CN4CCC5(CC4)COc4c5cc(Cl)c5c4CN([C@H]4CCC(=O)NC4=O)C5=O)CO3)CC2)c(F)cc1[C@@H]1c2ccc(O)cc2CC[C@@H]1c1ccccc1 [Compound A232, (S)-3-(5-chloro-1′-(((R)-9-(2-fluoro-4-((1S,2S)-6-hydroxy-2-phenyl-1,2,3,4-tetrahydronaphthalen-1-yl)-5-methoxyphenyl)-1-oxa-9-azaspiro[5.5]undecan-3-yl)methyl)-6-oxo-6,8-dihydro-2H,7H-spiro[furo[2,3-e]isoindole-3,4′-piperidin]-7-yl)piperidine-2,6-dione]	> 8.00	–	–	–	–	< 1 nM	–	> 75%	–
O=C1CC[C@H](N2Cc3c4c(cc(Cl)c3C2=O)C2(CCN(C[C@@H]3CCC5(CCN(c6ccc([C@@H]7c8ccc(O)cc8CC[C@@H]7c7ccccc7)cc6)CC5)OC3)CC2)CO4)C(=O)N1 [Compound A233, (S)-3-(5-chloro-1′-(((S)-9-(4-((1R,2S)-6-hydroxy-2-phenyl-1,2,3,4-tetrahydronaphthalen-1-yl)phenyl)-1-oxa-9-azaspiro[5.5]undecan-3-yl)methyl)-6-oxo-6,8-dihydro-2H,7H-spiro[furo[2,3-e]isoindole-3,4′-piperidin]-7-yl)piperidine-2,6-dione]	> 8.00	–	–	–	–	< 1 nM	–	> 75%	–
COc1cc(N2CCC3(CC[C@@H](CN4CCC5(CC4)COc4c5cc(Cl)c5c4CN([C@H]4CCC(=O)NC4=O)C5=O)CO3)CC2)c(F)cc1[C@@H]1c2ccc(O)cc2CC[C@@H]1c1ccccc1 [Compound A234, (S)-3-(5-chloro-1′-(((S)-9-(2-fluoro-4-((1S,2S)-6-hydroxy-2-phenyl-1,2,3,4-tetrahydronaphthalen-1-yl)-5-methoxyphenyl)-1-oxa-9-azaspiro[5.5]undecan-3-yl)methyl)-6-oxo-6,8-dihydro-2H,7H-spiro[furo[2,3-e]isoindole-3,4′-piperidin]-7-yl)piperidine-2,6-dione]	> 8.00	–	–	–	–	< 1 nM	–	> 75%	–
COc1cc2c(c3c1C(=O)N([C@H]1CCC(=O)NC1=O)C3)OCC21CCN(C[C@H]2CCC3(CCN(c4ccc([C@@H]5c6ccc(O)cc6CC[C@@H]5c5ccccc5)cc4)CC3)OC2)CC1 [Compound A235, (S)-3-(1′-(((R)-9-(4-((1R,2S)-6-hydroxy-2-phenyl-1,2,3,4-tetrahydronaphthalen-1-yl)phenyl)-1-oxa-9-azaspiro[5.5]undecan-3-yl)methyl)-5-methoxy-6-oxo-6,8-dihydro-2H,7H-spiro[furo[2,3-e]isoindole-3,4′-piperidin]-7-yl)piperidine-2,6-dione]	> 8.00	–	–	–	–	< 1 nM	–	> 75%	–
COc1cc2c(c3c1C(=O)N([C@H]1CCC(=O)NC1=O)C3)OCC21CCN(C[C@@H]2CCC3(CCN(c4ccc([C@@H]5c6ccc(O)cc6CC[C@@H]5c5ccccc5)cc4)CC3)OC2)CC1 [Compound A236, (S)-3-(1′-(((S)-9-(4-((1R,2S)-6-hydroxy-2-phenyl-1,2,3,4-tetrahydronaphthalen-1-yl)phenyl)-1-oxa-9-azaspiro[5.5]undecan-3-yl)methyl)-5-methoxy-6-oxo-6,8-dihydro-2H,7H-spiro[furo[2,3-e]isoindole-3,4′-piperidin]-7-yl)piperidine-2,6-dione]	7.00 to 8.00	–	–	–	–	< 1 nM	–	> 75%	–
(S)-3-(1′-((2-(2-fluoro-4-((1S,2S)-6-hydroxy-2-phenyl-1,2,3,4-tetrahydronaphthalen-1-yl)-5-methoxyphenyl)-2-azaspiro[3.5]nonan-7-yl)methyl)-7-oxo-5,7-dihydro-2H,6H-spiro[furo[2,3-f]isoindole-3,4′-piperidin]-6-yl)piperidine-2,6-dione [Compound A166]	–	–	–	–	–	< 1 nM	> 8.00	–	B (“B”: >50 and <75%)
